{"source": "patent US7314644B2", "about": "“Extraction and purification method of active constituents from stem of Lonicera japonica thunb., its usage for anti-inflammatory and analgesic drug” (SK Chemicals Co., Ltd., priority 2002, dated 2008)", "type_in_all_cases": "in vivo", "key": {"ICR mice [1]": {"test_system": "ICR mice", "test": "Croton oil induced ear edema test"}, "ICR mice [2]": {"test_system": "ICR mice", "test": "Arachidonic acid induced ear edema test"}, "ICR mice [3]": {"test_system": "ICR mice", "test": "Acetic acid induced writhing test"}, "SD rats": {"test_system": "SD rats", "test": "Toxicity test (lethal dose, symptoms, weight, autopsy)", "protocol": "The active constituents of honeysuckle stem and sweroside, in the amount of 1.0 g/kg, 1.5 g/kg and 2.0 g/kg, were administered through the tail veins of SD rats (body weight: 120 to 170 g, 5 male and female rats for each administration dose, SLC, Japan), respectively, which had been fasted for 4 hours. […] An autopsy was conducted to identify presence of any abnormalities of organs.\nThe lethal dose of the active constituents of honeysuckle stem and sweroside was both over 5.0 g/kg for oral administration (no dead rats observed), and over 2.0 g/kg for intravenous injection (no dead rats observed)."}}}
{"smiles": "C=C[C@H]1[C@H](O[C@@H]2O[C@H](CO)[C@@H](O)[C@H](O)[C@H]2O)OC=C2C(=O)OCC[C@H]21", "note": "[Sweroside, sweroside]", "values": [{"measurement": "Rate of Inhibition (%)", "setting": "ICR mice [1]; Table 8, tail vein, 0.1 mg/kg", "result": 49.8, "unit": "%"}, {"measurement": "Rate of Inhibition (%)", "setting": "ICR mice [1]; Table 8, tail vein, 1 mg/kg", "result": 56.2, "unit": "%"}, {"measurement": "Rate of Inhibition (%)", "setting": "ICR mice [1]; Table 8, tail vein, 10 mg/kg", "result": 65.7, "unit": "%"}, {"measurement": "Rate of Inhibition (%)", "setting": "ICR mice [1]; Table 9, oral administration, 1 mg/kg", "result": 31.9, "unit": "%"}, {"measurement": "Rate of Inhibition (%)", "setting": "ICR mice [1]; Table 9, oral administration, 10 mg/kg", "result": 43.1, "unit": "%"}, {"measurement": "Rate of Inhibition (%)", "setting": "ICR mice [1]; Table 9, oral administration, 100 mg/kg", "result": 57.8, "unit": "%"}, {"measurement": "Rate of Inhibition (%)", "setting": "ICR mice [2]; Table 10, tail vein, 0.1 mg/kg", "result": 48.3, "unit": "%"}, {"measurement": "Rate of Inhibition (%)", "setting": "ICR mice [2]; Table 10, tail vein, 1 mg/kg", "result": 55.1, "unit": "%"}, {"measurement": "Rate of Inhibition (%)", "setting": "ICR mice [2]; Table 10, tail vein, 10 mg/kg", "result": 69.1, "unit": "%"}, {"measurement": "Rate of Inhibition (%)", "setting": "ICR mice [2]; Table 11, oral administration, 1 mg/kg", "result": 29.0, "unit": "%"}, {"measurement": "Rate of Inhibition (%)", "setting": "ICR mice [2]; Table 11, oral administration, 10 mg/kg", "result": 34.7, "unit": "%"}, {"measurement": "Rate of Inhibition (%)", "setting": "ICR mice [2]; Table 11, oral administration, 100 mg/kg", "result": 45.7, "unit": "%"}, {"measurement": "Rate of Inhibition (%)", "setting": "ICR mice [3]; Table 12, tail vein, 0.1 mg/kg", "result": 74.6, "unit": "%"}, {"measurement": "Rate of Inhibition (%)", "setting": "ICR mice [3]; Table 12, tail vein, 1 mg/kg", "result": 86.4, "unit": "%"}, {"measurement": "Rate of Inhibition (%)", "setting": "ICR mice [3]; Table 12, tail vein, 10 mg/kg", "result": 89.7, "unit": "%"}, {"measurement": "Rate of Inhibition (%)", "setting": "ICR mice [3]; Table 13, oral administration, 1 mg/kg", "result": 65.9, "unit": "%"}, {"measurement": "Rate of Inhibition (%)", "setting": "ICR mice [3]; Table 13, oral administration, 10 mg/kg", "result": 79.1, "unit": "%"}, {"measurement": "Rate of Inhibition (%)", "setting": "ICR mice [3]; Table 13, oral administration, 100 mg/kg", "result": 87.9, "unit": "%"}, {"measurement": "general symptoms", "setting": "SD rats; 2.0 g/kg intravenously injected, restored soon", "result": "increased respiration counts and decreased activity for about 10 minutes"}, {"measurement": "autopsy result", "setting": "SD rats; as is the case with the control groups", "result": "no abnormalities"}, {"measurement": "weight change", "setting": "SD rats; observed for 2 weeks after administration", "result": "no change in weight"}]}
